Experimental data from patent publication EP4775575A1, “COMPOUND USED AS CDK4 KINASE INHIBITOR AND USE THEREOF” (TYK Medicines, Inc., priority 2023, dated 2025).

What was measured:
[1] = biological target: T1, CDK6/CyclinD3 (Homo sapiens, UniProt Q00534); experiment: Kinase activity assay (MSA, EZ Reader) against CDK6; type: biochemical; conditions: CDK6/CyclinD3 5.00 nM, ATP 350 µM, FL-Peptide34, 10mM MgCl2
T1 construct: purchased Carna 04-107

[2] = system: human mantle cell lymphoma cells JEKO-1; experiment: Cell anti-proliferation assay (MTT), JEKO-1; type: cell-based; conditions: Homo sapiens, 120 h, JEKO-1 cells, incubated for 5 days
In short: (§1)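 Cells in DMEM with 10% FBS were seeded at 50,000 cells/mL and grown overnight at 37 °C, 5% CO2, then treated at 9 concentrations (3-fold serial dilution, 0.1% DMSO medium). MTT was added for 3 h, formazan dissolved in acidified isopropanol/NP-40, and absorbance read at 570 nm.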

[3] = system: Human breast cancer cells MCF-7; experiment: Cell anti-proliferation assay (MTT), MCF-7; type: cell-based; conditions: Homo sapiens, MCF7, 120 h, MCF-7 cells, incubated for 5 days
In short: as §1

[4] = system: human ovarian cancer cells A2780; experiment: Cell anti-proliferation assay (MTT), A2780; type: cell-based; conditions: Homo sapiens, 120 h, incubated for 5 days
In short: as §1

[5] = Preclinical pharmacokinetic study in rats; type: in vivo, Sprague-Dawley (SD) rats; conditions: male SD rats, oral gavage (p.o.) 10 mg/kg, plasma; for AUC(0-t) / Cmax / Tmax: Sprague-Dawley, rat
In short: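 Male SD rats (6-8 weeks, 200-300 g), fasted overnight, given 10 mg/kg by oral gavage as 1 mg/mL solution in 5% DMSO/10% solutol HS-15/85% saline. Tail-vein plasma sampled up to 24 h, parent drug quantified by LC-MS/MS; parameters from non-compartmental analysis.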

[6] = biological target: CDK4/CycD1 (Homo sapiens, UniProt P11802); experiment: Kinase activity assay (MSA, EZ Reader) against CDK4
Chain of CDK4/CycD1 (P11802 whole entry): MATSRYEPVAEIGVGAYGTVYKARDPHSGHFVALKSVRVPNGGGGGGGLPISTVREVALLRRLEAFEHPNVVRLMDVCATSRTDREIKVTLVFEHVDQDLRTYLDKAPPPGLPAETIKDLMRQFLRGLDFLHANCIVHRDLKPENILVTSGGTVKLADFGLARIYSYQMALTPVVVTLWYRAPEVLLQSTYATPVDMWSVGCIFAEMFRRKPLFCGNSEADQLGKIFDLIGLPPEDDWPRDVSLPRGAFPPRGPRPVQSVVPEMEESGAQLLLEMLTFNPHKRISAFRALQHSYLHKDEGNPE

T1 sequence (Q00534 whole entry): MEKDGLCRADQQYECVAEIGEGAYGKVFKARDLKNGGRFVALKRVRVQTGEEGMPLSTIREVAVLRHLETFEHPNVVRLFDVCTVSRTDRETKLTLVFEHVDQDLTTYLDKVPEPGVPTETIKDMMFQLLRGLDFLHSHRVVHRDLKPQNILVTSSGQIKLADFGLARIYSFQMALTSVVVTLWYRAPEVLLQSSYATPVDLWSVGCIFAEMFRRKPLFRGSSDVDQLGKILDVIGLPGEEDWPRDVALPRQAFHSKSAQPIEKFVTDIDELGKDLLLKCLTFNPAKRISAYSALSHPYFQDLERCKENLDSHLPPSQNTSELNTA
T1 sequence (P30281 whole entry partner): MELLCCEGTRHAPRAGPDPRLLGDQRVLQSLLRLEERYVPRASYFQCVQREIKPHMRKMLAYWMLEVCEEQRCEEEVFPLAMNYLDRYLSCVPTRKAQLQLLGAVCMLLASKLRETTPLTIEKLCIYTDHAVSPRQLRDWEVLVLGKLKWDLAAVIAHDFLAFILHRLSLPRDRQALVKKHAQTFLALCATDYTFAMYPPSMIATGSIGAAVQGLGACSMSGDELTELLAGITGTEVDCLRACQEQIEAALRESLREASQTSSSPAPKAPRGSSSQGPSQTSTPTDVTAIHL

Compound	IC50 [1] [nM]	IC50 [2] [nM]	IC50 [3] [nM]	IC50 [4] [nM]	AUC(0-t) [5] [ng·h/mL]	Cmax [5] [ng/mL]	Tmax [5] [h]	HL_ [5] [h]	IC50 [6] [nM]
CC(C)n1c(N2CCOCC2)nc2c(F)cc(-c3nc(N[C@@H]4CCOC[C@H]4O)ncc3Cl)cc21 [TB-12, (3S,4R)-4-((5-chloro-4-(4-fluoro-1-isopropyl-2-morpholino-1H-benzo[d]imidazol-6-yl)pyrimidin-2-yl)amino)tetrahydro-2H-pyran-3-ol]	151	≤ 500	≤ 500	≤ 500	4500	677	1.5	3.14	6.01
C[C@H]1CCN(C2CC2)c2nc3c(F)cc(-c4nc(N[C@@H]5CCOC[C@H]5O)ncc4Cl)cc3n21 [TA-4]	63.9	≤ 500	≤ 500	≤ 500	16200	4430	1	3.19	4.4
C[C@H]1CCN(CC#N)c2nc3c(F)cc(-c4nc(N[C@@H]5CCOC[C@H]5O)ncc4Cl)cc3n21 [TC-2]	75.7	≤ 500	500 to 2000	≤ 500	1240	400	0.67	2.87	4.5
